From ChEMBL document CHEMBL4014353, “1,2,4-Triazolo-[1,5-a]pyridine HIF Prolylhydroxylase Domain-1 (PHD-1) Inhibitors With a Novel Monodentate Binding Interaction” (J Med Chem, 2017)
Values after ≈ are worked out from the molar mass of the structure shown.

Columns and labels:
[1] = AUC (0 to t) in C57BL/6 mouse at 3 mg/kg, po administered as cassette dose; format: ADME, organism-based; settings: in vivo
[2] = Permeability of the compound after 5 hrs by PAMPA; format: physicochemical; settings: read-out: permeability
[3] = Clearance in C57BL/6 mouse at 0.5 mg/kg, iv administered as cassette dose; format: ADME, organism-based; settings: in vivo
[4] = Protein binding in mouse plasma; format: ADME, cell-free; settings: read-out: PPB (converted)
[5] = Cmax in C57BL/6 mouse at 3 mg/kg, po administered as cassette dose; format: ADME, organism-based; set-up: dose 3 mg/kg, route oral; settings: in vivo
[6] = Ratio of drug level in C57BL/6 mouse brain to plasma at 3 mg/kg, po or 0.5 mg/kg, iv administered as cassette dose; format: ADME, organism-based; settings: brain and plasma, read-out: BPR
[7] = Kinetic solubility of the compound by LC-UV/MS analysis; format: physicochemical; settings: read-out: Kinetic_solubility
[8] = Ratio of unbound brain to plasma concentration in C57BL/6 mouse at 3 mg/kg, po or 0.5 mg/kg, iv administered as cassette dose; format: ADME, organism-based; settings: brain and plasma, read-out: K(p,uu,brain)
[9] = Oral bioavailability in C57BL/6 mouse at 3 mg/kg administered as cassette dose; format: ADME, organism-based; settings: in vivo

Compound | AUC(0-t) [1] | Papp at 5 h [2] | clearance [3] | fraction unbound [4] | Cmax [5] | Kp [6] | solubility kinetic [7] | Kp uu [8] | bioavailability [9]
Cc1cc(C#N)ccc1-c1cc(N)cc2ncnn12 | 40000 ng·h/mL | 5.9 ×10⁻⁶ cm/s | 0.48 mL/min/kg | 0.302 | 14.8 µM | 0.21 | 151 µM (≈ 37.6 µg/mL) | 0.39 | 39%
N#Cc1ccc(-c2cccc3ncnn23)cc1 | 176 ng·h/mL | 24.6 ×10⁻⁶ cm/s | 108 mL/min/kg | 0.287 | 0.8 µM | 0.95 | 44 µM (≈ 9.69 µg/mL) | 1.11 | 40%
Cc1cc(C#N)ccc1-c1cccc2ncnn12 | 1870 ng·h/mL | 40.9 ×10⁻⁶ cm/s | 31.6 mL/min/kg | 0.21 | 5.58 µM | 0.88 | 189 µM (≈ 44.3 µg/mL) | 1.59 | 100%
CC(=O)Nc1cc(-c2ccc(C#N)cc2C)n2ncnc2c1 | 3660 ng·h/mL | 2.9 ×10⁻⁶ cm/s | 17.5 mL/min/kg | 0.486 | 5 µM | 0.03 | 99 µM (≈ 28.8 µg/mL) | 0.02 | 100%
